Measured values taken from patent publication US8471024B2, “Tetrahydrofuropyridones” (priority 2008, dated 2013).

Biological target: T1, PHD2 (Homo sapiens, UniProt Q9GZT9)
T1 construct: FLAG-tagged full length PHD2expressed in and purified from baculovirus-infected Sf9 cells; FLAG; made in house; host or cells: baculovirus-infected Sf9 cells
Test: Assay for HIF-PHD2 Catalytic Activity (time resolved fluorescence, VHL complex detection)
Type: biochemical
Conditions: FLAG-tagged full length PHD2; 0.2 μM 2-oxoglutarate, 0.5 μM HIF-1α peptide; read-out: PHD2 Binding Activity IC50
Description: Assay for HIF-PHD2Catalytic Activity To each well of a 96-well plate was added 1 μL of test compound in DMSO and 20 μl of assay buffer (50 mM Tris pH 7.4/0.01% Tween-20/0.1 mg/ml bovine serum albumin/10 μM ferrous sulfate/1mM sodium ascorbate/20 μg/ml catalase) containing 0.15 μg/ml FLAG-tagged full length PHD2expressed in and purified from baculovirus-infected Sf9 cells. After a 30 min preincubation at room temperature, the enzymatic reactions were initiated by the addition of 4 μL of substrates (final concentrations of 0.2 μM 2-oxoglutarate and 0.5 μM HIF-1α peptide biotinyl-DLDLEMLAPYJPMDDDFQL).

T1 sequence (Q9GZT9 whole entry): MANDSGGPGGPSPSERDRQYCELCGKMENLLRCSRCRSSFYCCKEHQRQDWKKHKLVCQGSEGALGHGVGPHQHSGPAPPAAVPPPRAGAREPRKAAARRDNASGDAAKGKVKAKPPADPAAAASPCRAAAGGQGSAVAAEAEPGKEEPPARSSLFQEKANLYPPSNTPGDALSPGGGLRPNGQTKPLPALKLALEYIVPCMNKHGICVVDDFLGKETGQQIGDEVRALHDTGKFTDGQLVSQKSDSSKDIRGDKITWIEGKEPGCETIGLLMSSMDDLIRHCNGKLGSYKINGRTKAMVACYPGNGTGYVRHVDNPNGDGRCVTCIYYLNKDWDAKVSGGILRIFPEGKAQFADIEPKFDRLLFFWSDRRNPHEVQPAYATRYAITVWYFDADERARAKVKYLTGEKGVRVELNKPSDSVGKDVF

IC50 [nM]	Compound
< 10	CC1OCc2c1c(O)c(C(=O)NCC(=O)O)c(=O)n2Cc1ccc(C(F)(F)F)nc1 (centres unmarked) [Example 14, N-[(4-hydroxy-5-methyl-2-oxo-1-{[6-(trifluoromethyl)pyridine-3-yl]methyl}-1,2,5,7-tetrahydrofuro[3,4-b]pyridin-3-yl}carbonyl)glycine]
< 10	O=C(O)CNC(=O)c1c(O)c2c(n(Cc3cnc(-c4ccc(F)c(F)c4)cn3)c1=O)COC2 [Example 52, N-[(1-{[5-(3,4-difluorophenyl)pyrazin-2-yl]methyl}-4-hydroxy-2-oxo-1,2,5,7-tetrahydrofuro[3,4-b]pyridin-3-yl)carbonyl]glycine]
< 10	Cc1cnc(Cn2c3c(c(O)c(C(=O)NCC(=O)O)c2=O)COC3)cn1 [Example 7]
< 10	O=C(O)CNC(=O)c1c(O)c2c(n(Cc3cnc(Cl)cn3)c1=O)COC2 [Example 12, N-({1-[(5-chloropyrazin-2-yl)methyl]-4-hydroxy-2-oxo-1,2,5,7-tetrahydrofuro[3,4-b]pyridin-3-yl}carbonyl)glycine]
10 to 100	CC1(C)OCc2c(O)c(C(=O)NCC(=O)O)c(=O)n(Cc3nc4ccccc4s3)c21 [Example 25]
< 10	O=C(O)CNC(=O)c1c(O)c2c(n(Cc3ccc(-c4ccc(F)cc4F)nc3)c1=O)COC2 [Example 44, N-[(1-{[6-(2,4-difluorophenyl)pyridin-3-yl]methyl}-4-hydroxy-2-oxo-1,2,5,7-tetrahydrofuro[3,4-b]pyridin-3-yl)carbonyl]glycine]
< 10	O=C(O)CNC(=O)c1c(O)c2c(n(Cc3ccc(-c4ccccc4-n4cccn4)cc3)c1=O)COC2 [Example 32, N-[(4-hydroxy-2-oxo-1-{[2′-(1H-pyrazol-yl)biphenyl-4-yl]methyl}-1,2,5,7-tetrahydrofuro[3,4-b]pyridin-3-yl}carbonyl)glycine]
< 10	O=C(O)CNC(=O)c1c(O)c2c(n(Cc3ccc(-c4ccccc4Cl)cc3F)c1=O)COC2 [Example 38]
